The source of these data is patent US20250206730A1 (AUTOTELIC BIO INC., priority 2022, published 2025).

One may read the IC50 as the concentration at which inhibition is half-maximal.

The target of one experiment is T1, ALK5 kinase (Homo sapiens, UniProt P36897).
T1 sequence (P36897 34-503): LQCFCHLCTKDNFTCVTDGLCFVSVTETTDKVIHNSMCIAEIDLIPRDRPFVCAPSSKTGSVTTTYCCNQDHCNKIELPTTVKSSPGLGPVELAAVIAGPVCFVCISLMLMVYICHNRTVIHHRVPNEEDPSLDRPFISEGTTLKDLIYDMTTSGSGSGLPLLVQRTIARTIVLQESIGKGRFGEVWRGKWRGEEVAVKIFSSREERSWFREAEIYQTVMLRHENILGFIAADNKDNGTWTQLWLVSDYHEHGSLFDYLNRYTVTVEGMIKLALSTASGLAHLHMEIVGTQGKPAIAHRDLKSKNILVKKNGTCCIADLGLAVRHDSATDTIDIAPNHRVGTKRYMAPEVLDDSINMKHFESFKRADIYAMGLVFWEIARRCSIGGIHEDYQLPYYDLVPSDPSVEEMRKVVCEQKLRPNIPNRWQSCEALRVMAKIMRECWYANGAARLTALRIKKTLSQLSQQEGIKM
Put plainly: LanthaScreen Eu Kinase Binding Assay. The note with it: Kinase Tracer 178, Eu-anti-GST Antibody, read-out: IC50 Enzyme. As for the experimental part:
[Example 1] LanthaScreen Eu Kinase Binding Assay
4 μL of 4× Test Compound in 4% DMSO and 4 μL of 4× Kinase in Kinase buffer were added to wells (low volume, white 384-well plate (Greiner Cat. #784207)). The plate was shaken for 30 seconds, centrifuged for 10 seconds at 1000 rpm, and incubated at RT for 30 minutes. Then, 4 μL of 4× Eu-anti-GST Antibody and 4 μL of 4× Kinase Tracer 178 were added to the wells. The plate was shaken for 30 seconds, centrifuged for 10 seconds at 1000 rpm, and incubated at RT for 60 minutes. Fluorescence was measured by a plate reader, Biotek Synergy H1 (Vermont, USA) under the following conditions. • Excitation: 340 nm (3 nm bandpass) • Kinase tracer emission: 665 nm (10 nm bandpass) • Eu Ab emission: 615 nm (10 nm bandpass) • Emission ratio=665 nm (tracer)/615 nm (Eu Ab) • The higher the binding affinity of compound to ALK5 kinase is, the less the emission ratio is.

The test system of a further experiment is TGF-β signaling. Put plainly: Assay for evaluating cellular inhibition of TGF-β signaling, 4T1 (SBE-luc2P) luciferase reporter. The note with it: Mus musculus, 4T1, 4T1 (SBE-luc2P) transient pool, 0.2% FBS, 2 h pre-treatment, TGF-β1 2 ng/mL 24 h; read-out: IC50 4T1 Cell. In kind it is cell-based. In a few lines:
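Luminescence from SMAD-binding-element luciferase was measured after 24 h of 2 ng/mL TGF-β1 at 37 °C, following 2 h compound pre-treatment. HEK293 stable reporter cells were used at 2.5×10^4/well in 0.5% FBS (~80% confluent); the 4T1 SBE-luc2P transient pool at 6×10^3/well in 0.2% FBS (~60% confluent).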

Molecules are shown by their SMILES. Some results are limits rather than exact numbers.

For `CCc1nc(-c2cccc(C)n2)c(Oc2ccnc(Nc3ccc(C(N)=O)cn3)c2)s1` [A-251, 6-((4-((2-Ethyl-4-(6-methylpyridin-2-yl)thiazol-5-yl)oxy)pyridin-2-yl)amino)nicotinamide], the IC50 at ALK5 kinase and with TGF-β signaling was less than 100 nM each time.
As for `COc1nc(-c2ccccc2)c(Oc2ccnc(Nc3cccc(C(C)(C)O)c3)c2)s1` [A-141, 2-(3-((4-((2-Methoxy-4-phenylthiazol-5-yl)oxy)pyridin-2-yl)amino)phenyl)propan-2-ol], the IC50 was less than 100 nM at ALK5 kinase and greater than 100 nM in the experiment with TGF-β signaling.
`CCc1nc(-c2cccc(C)n2)c(Oc2ccnc(Nc3cncc(C(=O)O)c3)c2)s1` [A-260, 5-((4-((2-Ethyl-4-(6-methylpyridin-2-yl)thiazol-5-yl)oxy)pyridin-2-yl)amino)nicotinic acid]: the IC50 at ALK5 kinase is less than 100 nM; with TGF-β signaling it was greater than 100 nM.
In the case of `CN(C)c1nc(-c2ccc3ccccc3c2)c(Oc2ccnc(Nc3cccc(S(N)(=O)=O)c3)c2)s1` [A-235, 3-((4-((2-(Dimethylamino)-4-(naphthalen-2-yl)thiazol-5-yl)oxy)pyridin-2-yl)amino)benzenesulfonamide], the IC50 on ALK5 kinase and in the experiment with TGF-β signaling was greater than 100 nM in each case.
On to `CNc1nc(-c2ccccc2)c(Oc2ccnc(Nc3cccc(C(C)(C)O)c3)c2)s1` [A-50, 2-(3-((4-((2-(Methylamino)-4-phenylthiazol-5-yl)oxy)pyridin-2-yl)amino)phenyl)propan-2-ol], for which the IC50 is less than 100 nM on ALK5 kinase and greater than 100 nM in the experiment with TGF-β signaling.
The matching figures for `CNC(=O)c1ccc(Nc2cc(Oc3sc(N(C)C)nc3-c3ccccc3)ccn2)cc1` [A-164, 4-((4-((2-(Dimethylamino)-4-phenylthiazol-5-yl)oxy)pyridin-2-yl)amino)-N-methylbenzamide]: less than 100 nM and greater than 100 nM.
For `Cc1cccc(-c2nc(C(F)(F)F)sc2Oc2ccnc(Nc3ccc(C(N)=O)cn3)c2)n1` [A-290], in that order: less than 100 nM and less than 100 nM.
The matching figures for `CNC(=O)c1cccc(Nc2cc(Oc3sc(N(C)C)nc3-c3ccccc3)ccn2)n1` [A-161, 6-((4-((2-(Dimethylamino)-4-phenylthiazol-5-yl)oxy)pyridin-2-yl)amino)-N-methylpicolinamide]: less than 100 nM and less than 100 nM.
As to `O=C(O)c1cccc(Nc2cc(Oc3sc(C4CC4)nc3-c3ccccc3)ccn2)c1` [A-135, 3-((4-((2-Cyclopropyl-4-phenylthiazol-5-yl)oxy)pyridin-2-yl)amino)benzoic acid], the IC50 on ALK5 kinase and in the experiment on TGF-β signaling was less than 100 nM in each case.
As to `CCc1nc(-c2cccc(C)n2)c(Oc2ccnc(Nc3ccc(C(=O)NC)cn3)c2)s1` [A-253, 6-((4-((2-Ethyl-4-(6-methylpyridin-2-yl)thiazol-5-yl)oxy)pyridin-2-yl)amino)-N-methylnicotinamide], the IC50 on ALK5 kinase and in the experiment on TGF-β signaling was less than 100 nM each time.
In the case of `CC(C)(O)c1cccc(Nc2cc(Oc3sc(NC4CC4)nc3-c3ccccc3)ccn2)c1` [A-44, 2-(3-((4-((2-(Cyclopropylamino)-4-phenylthiazol-5-yl)oxy)pyridin-2-yl)amino)phenyl)propan-2-ol], the IC50 was less than 100 nM at ALK5 kinase and greater than 100 nM with TGF-β signaling.
For `CN(C)c1nc(-c2ccccc2)c(Oc2ccnc(Nc3ccc(S(N)(=O)=O)cc3)c2)s1` [A-156, 4-((4-((2-(Dimethylamino)-4-phenylthiazol-5-yl)oxy)pyridin-2-yl)amino)benzenesulfonamide], in that order: less than 100 nM and greater than 100 nM.
For `CNC(=O)c1ccc(Nc2cc(Oc3sc(C4CC4)nc3-c3ccccc3)ccn2)nc1` [A-133, 6-((4-((2-Cyclopropyl-4-phenylthiazol-5-yl)oxy)pyridin-2-yl)amino)-N-methylnicotinamide], in that order: less than 100 nM and less than 100 nM.
With `CCc1nc(-c2cccc(C)n2)c(Oc2ccnc(Nc3cccc(C(N)=O)n3)c2)s1` [A-255, 6-((4-((2-Ethyl-4-(6-methylpyridin-2-yl)thiazol-5-yl)oxy)pyridin-2-yl)amino)picolinamide], the IC50 on ALK5 kinase and in the experiment on TGF-β signaling was less than 100 nM each time.
In the case of `CNC(=O)c1ccc(Nc2cc(Oc3sc(C4CC4)nc3-c3ccccc3)ccn2)cc1` [A-126, 4-((4-((2-Cyclopropyl-4-phenylthiazol-5-yl)oxy)pyridin-2-yl)amino)-N-methylbenzamide], the IC50 on ALK5 kinase and in the experiment on TGF-β signaling was less than 100 nM each time.
As to `NC(=O)c1cccc(Nc2cc(Oc3sc(Br)nc3-c3ccccc3)ccn2)c1` [A-172, 3-((4-((2-Bromo-4-phenylthiazol-5-yl)oxy)pyridin-2-yl)amino)benzamide], the IC50 at ALK5 kinase and with TGF-β signaling was greater than 100 nM each time.
Take `NC(=O)c1ccc(Nc2cc(Oc3sc(C4CC4)nc3-c3ccccc3)ccn2)cc1` [A-119, 4-((4-((2-Cyclopropyl-4-phenylthiazol-5-yl)oxy)pyridin-2-yl)amino)benzamide]: the IC50 on ALK5 kinase and in the experiment on TGF-β signaling was less than 100 nM in each case.
In the case of `CCc1nc(-c2ccccc2)c(Oc2ccnc(Nc3ccc(C(=O)O)cn3)c2)s1` [A-192, 6-((4-((2-Ethyl-4-phenylthiazol-5-yl)oxy)pyridin-2-yl)amino)nicotinic acid], the IC50 on ALK5 kinase and in the experiment with TGF-β signaling was less than 100 nM throughout.
Turning to `CCc1nc(-c2cccc(C)n2)c(Oc2ccnc(Nc3ccnc(C(=O)O)c3)c2)s1` [A-263, 4-((4-((2-Ethyl-4-(6-methylpyridin-2-yl)thiazol-5-yl)oxy)pyridin-2-yl)amino)picolinic acid], the values for the IC50 on ALK5 kinase and with TGF-β signaling were less than 100 nM and greater than 100 nM, respectively.
`Cc1nc(-c2ccccc2)c(Oc2ccnc(Nc3cncc(C(N)=O)c3)c2)s1` [A-92, 5-((4-((2-Methyl-4-phenylthiazol-5-yl)oxy)pyridin-2-yl)amino)nicotinamide]: the IC50 at ALK5 kinase and with TGF-β signaling was less than 100 nM in each case.
With `Cc1nc(-c2ccccc2)c(Oc2ccnc(Nc3ccc(C(C)(C)O)nc3)c2)s1` [A-65, 2-(5-((4-((2-Methyl-4-phenylthiazol-5-yl)oxy)pyridin-2-yl)amino)pyridin-2-yl)propan-2-ol], the IC50 is less than 100 nM on ALK5 kinase and greater than 100 nM in the experiment on TGF-β signaling.
Regarding `CC(C)(O)c1ccc(Nc2cc(Oc3sc(C4CC4)nc3-c3ccccc3)ccn2)cn1` [A-121, 2-(5-((4-((2-Cyclopropyl-4-phenylthiazol-5-yl)oxy)pyridin-2-yl)amino)pyridin-2-yl)propan-2-ol], the IC50 at ALK5 kinase was less than 100 nM; in the experiment with TGF-β signaling it was greater than 100 nM.
For `O=C(O)c1ccc(Nc2cc(Oc3sc(C4CC4)nc3-c3ccccc3)ccn2)nc1` [A-132, 6-((4-((2-Cyclopropyl-4-phenylthiazol-5-yl)oxy)pyridin-2-yl)amino)nicotinic acid], in that order: less than 100 nM and less than 100 nM.
Turning to `CCc1nc(-c2ccccc2)c(Oc2ccnc(Nc3cccc(NS(=O)(=O)CC)c3)c2)s1` [A-188, N-(3-((4-((2-Ethyl-4-phenylthiazol-5-yl)oxy)pyridin-2-yl)amino)phenyl)ethanesulfonamide], the half-inhibitory concentration (IC50) on ALK5 kinase and in the experiment on TGF-β signaling was less than 100 nM throughout.
Turning to `CS(=O)(=O)Nc1ccc(Nc2cc(Oc3sc(C4CC4)nc3-c3ccccc3)ccn2)nc1` [A-127, N-(6-((4-((2-Cyclopropyl-4-phenylthiazol-5-yl)oxy)pyridin-2-yl)amino)pyridin-3-yl)methanesulfonamide], the IC50 on ALK5 kinase and with TGF-β signaling was less than 100 nM each time.
Take `Nc1nc(-c2ccccc2)c(Oc2ccnc(Nc3ccc(S(N)(=O)=O)cc3)c2)s1` [A-4, 4-((4-((2-Amino-4-phenylthiazol-5-yl)oxy)pyridin-2-yl)amino)benzenesulfonamide]: the IC50 at ALK5 kinase is less than 100 nM; in the experiment on TGF-β signaling it was greater than 100 nM.
For `CCc1nc(-c2ccccc2)c(Oc2ccnc(Nc3cccc(S(N)(=O)=O)c3)c2)s1` [A-181, 3-((4-((2-Ethyl-4-phenylthiazol-5-yl)oxy)pyridin-2-yl)amino)benzenesulfonamide], in that order: less than 100 nM and less than 100 nM.
Turning to `O=C(O)c1ccc(Nc2cc(Oc3sc(C4CC4)nc3-c3ccccc3)ccn2)cc1` [A-136, 4-((4-((2-Cyclopropyl-4-phenylthiazol-5-yl)oxy)pyridin-2-yl)amino)benzoic acid], the IC50 at ALK5 kinase and with TGF-β signaling was less than 100 nM in each case.
